Literature values as cited in US20160081962A1, “N[…] DIETARY S[…] ACIDS AND NITRITE” (NITROMEGA CORP., priority 2013, published 2016).

Settings: exogenous NO3^− intake 10 mg/kg in humans; in 30 min

Which “increase of plasma NO2^− concentration” value does the source give for `O=[N+]([O-])O` [NO3^−, nitrate] here?
The value was “up to four- to five-fold”.
